Reference: US11396501B2, “Heteroaryl compounds as CXCR4 inhibitors, composition and method using the same” (CGENETECH (SUZHOU, CHINA) CO., LTD., priority 2017, dated 2022)

Legend:
CXCR4 [1] = molecular target: T1, CXCR4 (Homo sapiens, UniProt P61073); assay: HPB-ALL CXCR4 competitive binding assay (12G5 binding assay); set-up: HPB-ALL cells were maintained in RPMI-1640 (Gibico) supplemented with 10% FBS (Hyclone); endogenous in cells; host or cells: HPB-ALL cells; settings: HPB-ALL cells; competition with APC-conjugated anti-human CXCR4 clone 12G5 at its EC80; 4° C. for 3 h; FACS
Procedure: HPB-ALL CXCR4 Competitive Binding Assay
HPB-ALL cells were maintained in RPMI-1640 (Gibico) supplemented with 10% FBS (Hyclone). APC-conjugated anti-human CXCR4 was from Sungene. EC80 was first determined for 12G5 binding to CXCR4. Then the compounds for testing were added into 96-well plates serially diluted at a ratio of 1:3. Cells were washed once with ice-cold assay buffer (DPBS+2% HI-FBS) and then re-suspended in the same buffer at a final concentration of 1×10^6/mL. Cell suspension was then added into the wells and with the addition of APC-conjugated anti-human CXCR4 clone 12G5 at its EC80 determined. The mix of cell, compounds and APC-conjugated anti-human CXCR4 were incubated at 4° C. for 3 h before addition of 100 μL of 4% PFA. Cells were then washed once and resuspended in assay buffer and examined by FACS. The percent (%) effect at each concentration of compound was calculated and relative to the amount of calcium produced in the positive and negative control wells contained within each assay plate. The concentrations and % effect values for tested compounds were plotted and the concentration of compound required for 50% effect (IC50) was determined. Tables 2 summarize results of the CXCR4 competitive binding assay for selected compounds disclosed in the present disclosure. FIGS. 1-2 depict the IC50 curves of compounds A42 and A43.

CXCR4 [2] = molecular target: T1, CXCR4; assay: FLIPR Tetra calcium mobilization assay; assay type: cell-based; settings: Human CD4+ T-Cells; CXCL12 added; FLIPR Calcium 4 assay kit
Procedure: FLIPR Tetra Calcium Mobilization Assay The FLIPR Tetra calcium mobilization assay was performed by HD Bioscience. Briefly, The Molecular Devices, Fluorescent Imaging Plate Reader (FLIPR) Tetra was used in this assay. Excitation was achieved through unique placement of LED's within the instrument and emission captured by a CCD camera (EMCCD camera for FI and ICCD camera for luminescence). The homogeneous FLIPR Calcium 4 assay kit from Molecular Devices was used as the fluorescence reagent. Compounds were solubilized in 100% dimethyl sulfoxide (DMSO) to a concentration of 30 mM. A 10-point, 4-fold, intermediate dilution series was created in 100% DMSO with a top concentration of 4 mM and a bottom concentration of 0.01 μM. A near assay ready, direct dilution plate ([…]) was prepared from this compound dilution plate by transferring 1 μL of each dilution of compound in 100% DMSO to a Greiner #781201 plate. In addition, each […] plate also contained positive and negative control wells to define the upper and lower limits for the assay signal. The final assay concentration range of compound was 10 μM to 0.035 nM in 0.5% DMSO. Human CD^4+ T-Cells were isolated from human whole blood and subsequently activated and expanded using a CD3/CD28 expansion kit (Life Technologies). The cells were frozen in ThermoFisher-formulated Recovery Cell Culture Freezing Medium containing 10% Dimethyl sulfoxide (DMSO) and 10% Fetal Bovine Serum (FBS) (ThermoFisher Catalog No. 10100147). When used, cells were resuspended using room temperature 1× HBSS/20 mM HEPES/0.005% P-104 assay buffer, adjusted the volume of the suspension to achieve a cell concentration of 2.5×10^6 cells/mL. 2× Calcium 4 dye (20 μL/well) were added and the mixture were centrifuged briefly ( 10 s) and stopped when it reached 1000 rpm. The plates were allowed to equilibrate before compounds and CXCL12 were added to the plates. The raw data were analyzed using Abase. The percent (%) effect at each concentration of compound was calculated by Abase and was based on and relative to the amount of calcium produced in the positive and negative control wells contained within each assay plate. The concentrations and % effect values for tested compounds were plotted by Abase and the concentration of compound required for 50% effect (IC50) was determined with a four-parameter logistic dose response equation. FIGS. 3 and 4 summarize the results of Compounds A78 and A83 in the calcium mobilization assay.

T1 sequence (P61073 whole entry): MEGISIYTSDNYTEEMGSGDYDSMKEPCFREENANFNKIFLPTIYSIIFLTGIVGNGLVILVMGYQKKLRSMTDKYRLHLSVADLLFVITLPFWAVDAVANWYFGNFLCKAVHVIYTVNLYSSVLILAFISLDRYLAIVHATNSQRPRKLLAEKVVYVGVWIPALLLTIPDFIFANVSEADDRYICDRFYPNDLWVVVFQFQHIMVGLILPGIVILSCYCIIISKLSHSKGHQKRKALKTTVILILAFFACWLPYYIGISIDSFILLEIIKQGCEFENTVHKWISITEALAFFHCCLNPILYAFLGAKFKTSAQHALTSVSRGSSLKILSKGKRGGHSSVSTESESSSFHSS

Cc1nc(CN(C)[C@H](C)c2ccccn2)cc(N2CCN(C)CC2)n1 [Compound A76]
IC50 (CXCR4 [1]): 220 nM

Cc1nc(CN(C)C2CCCc3cccnc32)c(C#N)c(N2CCN(C)CC2)n1 (stereo not shown) [Compound A77]
IC50 (CXCR4 [1]): 9 nM

Cc1nc(CN(C)[C@@H](C)c2ccccn2)cc(N2CCN3CCC[C@@H]3C2)n1 [Compound A78]
IC50 (CXCR4 [2]): 0.062 nM

Cc1nc(CN(C)[C@@H](C)c2ccccn2)cc(N2CCN3CCC[C@H]3C2)n1 [Compound A79]
IC50 (CXCR4 [2]): 0.22 nM

CCN(Cc1cc(N2CCN(C)CC2)nc(C)n1)[C@@H](C)c1ccccn1 [Compound A80]
IC50 (CXCR4 [2]): 0.18 nM

C[C@@H](c1ccccn1)N(C)Cc1cc(N2CCN(C)CC2)nc(CO)n1 [Compound A81]
IC50 (CXCR4 [2]): 4.5 nM

C[C@@H](c1ccccn1)N(C)Cc1cc(N2CCN3CCC[C@@H]3C2)nc(CO)n1 [Compound A82]
IC50 (CXCR4 [2]): 2.5 nM

C[C@@H](c1ccccn1)N(C)Cc1cc(N2CCN(C)CC2)nc(N)n1 [Compound A83]
IC50 (CXCR4 [2]): 0.93 nM

Cc1nc(CN(C)[C@@H](C)c2ccccn2)cc(N2CCN(C)CC2CO)n1 (stereo partly shown) [Compound A84]
IC50 (CXCR4 [2]): 3 nM

Cc1nc(CN(C)[C@@H](C)c2ccccn2)c(CO)c(N2CCN(C)CC2)n1 [Compound A85, (S)-(2-methyl-4-((methyl(1-(pyridin-2-yl)ethyl)amino)methyl)-6-(4-methylpiperazin-1-yl)pyrimidin-5-yl)methanol]
IC50 (CXCR4 [2]): 0.99 nM

Cc1nc(CN(C)[C@@H](C)c2ccccn2)c(CO)c(N2CCN3CCC[C@@H]3C2)n1 [Compound A86]
IC50 (CXCR4 [2]): 0.13 nM

Cc1nc(CN(C)[C@@H](C)c2ccccn2)c(CO)c(N2CCN3CCC[C@H]3C2)n1 [Compound A87]
IC50 (CXCR4 [2]): 0.18 nM

Cc1nc(CN(C)[C@@H](C)c2ccccn2)c(CO)c(N2CCN(C)[C@@H](C)C2)n1 [Compound A88]
IC50 (CXCR4 [2]): 0.3 nM

Cc1nc(CN(C)[C@@H](C)c2ccccn2)c(CO)c(N2CCN(C)[C@H](C)C2)n1 [Compound A89]
IC50 (CXCR4 [2]): 0.13 nM

Cc1nc(CN(C)C2CCOc3cccnc32)cc(N2CCN(C)CC2)n1 (stereo not shown) [Compound A90]
IC50 (CXCR4 [2]): 0.046 nM

Cc1nc(CN(C)[C@H]2CCOc3cccnc32)cc(N2CCN(C)CC2)n1 [Compound A91]
IC50 (CXCR4 [2]): 0.032 nM

COc1cccnc1[C@H](C)N(C)Cc1cc(N2CCN(C)CC2)nc(C)n1 [Compound A92]
IC50 (CXCR4 [2]): 118 nM

C[C@@H](c1ccccn1)N(C)Cc1cn2c(N3CCN(C)CC3)cccc2n1 [Compound A95, (S)-N-methyl-N-((5-(4-methylpiperazin-1-yl)imidazo[1,2-a]pyridin-2-yl)methyl)-1-(pyridin-2-yl)ethan-1-amine]
IC50 (CXCR4 [2]): 0.13 nM

C[C@@H](c1ccccn1)N(C)Cc1nc2cccc(N3CCN(C)CC3)n2c1CO [Compound A96, (S)-(2-((methyl(1-(pyridin-2-yl)ethyl)amino)methyl)-5-(4-methylpiperazin-1-yl)imidazo[1,2-a]pyridin-3-yl)methanol]
IC50 (CXCR4 [2]): 0.086 nM

C[C@@H](c1ccccn1)N(C)Cc1cn2c(N3CCN4CCC[C@H]4C3)cccc2n1 [Compound A97]
IC50 (CXCR4 [2]): 0.25 nM

C[C@@H](c1ccccn1)N(C)Cc1cn2c(N3CCN4CCC[C@@H]4C3)cccc2n1 [Compound A98]
IC50 (CXCR4 [2]): 0.15 nM

C[C@@H](c1ccccn1)N(C)Cc1nc2cccc(N3CCN4CCC[C@H]4C3)n2c1CO [Compound A99]
IC50 (CXCR4 [2]): 0.39 nM

C[C@@H](c1ccccn1)N(C)Cc1nc2cccc(N3CCN4CCC[C@@H]4C3)n2c1CO [Compound A100]
IC50 (CXCR4 [2]): 0.29 nM

CN1CCN(c2cc(N(C)CC3CCCc4cccnc43)ncn2)CC1 (stereo not shown) [Compound B1]
IC50 (CXCR4 [1]): > 10000 nM

CN(C)c1ncc(CN(C)C2CCCc3cccnc32)c(NCCNC(=O)OC(C)(C)C)n1 (stereo not shown) [Compound B7, reference compound]
IC50 (CXCR4 [1]): > 10000 nM

CN(C)c1ncc(CN(C)C2CCCc3cccnc32)c(NCCN)n1 (stereo not shown) [Compound B8, reference compound]
IC50 (CXCR4 [1]): > 10000 nM

CSc1nc([C@H]2CCCN2[C@H]2CCCc3cccnc32)cc(N2CCN(C)CC2)n1 [Compound C1]
IC50 (CXCR4 [1]): 93 nM

CSc1nc([C@@H]2CCCN2[C@@H]2CCCc3cccnc32)cc(N2CCN(C)CC2)n1 [Compound C4]
IC50 (CXCR4 [1]): 2320 nM

Cc1nc([C@H]2CCCN2[C@H]2CCCc3cccnc32)cc(N2CCN(C)CC2)n1 [Compound C5]
IC50 (CXCR4 [1]): 20 nM

Cc1nc([C@H]2CCCCN2[C@H]2CCCc3cccnc32)cc(N2CCN(C)CC2)n1 [Compound C6]
IC50 (CXCR4 [1]): 3240 nM

Cc1nc([C@@H]2CCCCN2[C@@H]2CCCc3cccnc32)cc(N2CCN(C)CC2)n1 [Compound C8]
IC50 (CXCR4 [1]): 6960 nM

CSc1nc(CN2CCCCC2c2ccccn2)cc(N2CCN(C)CC2)n1 (stereo not shown) [Compound C10]
IC50 (CXCR4 [1]): 248 nM

CSc1nc(CN2CCCC2c2ccccn2)cc(N2CCN(C)CC2)n1 (stereo not shown) [Compound C11]
IC50 (CXCR4 [1]): 142 nM

Cc1nc(CN2CCCC2c2ccccn2)cc(N2CCN(C)CC2)n1 (stereo not shown) [Compound C12]
IC50 (CXCR4 [1]): 165 nM

Cc1nc([C@H]2CCN2[C@H]2CCCc3cccnc32)cc(N2CCN(C)CC2)n1 [Compound C13]
IC50 (CXCR4 [1]): 62 nM

Cc1nc([C@H]2CCN2[C@@H]2CCCc3cccnc32)cc(N2CCN(C)CC2)n1 [Compound C14]
IC50 (CXCR4 [1]): 8110 nM

Cc1nc([C@H]2C[C@@H](O[Si](C)(C)C(C)(C)C)CN2[C@H]2CCCc3cccnc32)cc(N2CCN(C)CC2)n1 [Compound C15]
IC50 (CXCR4 [1]): 500 nM

Cc1nc([C@H]2C[C@@H](O)CN2[C@H]2CCCc3cccnc32)cc(N2CCN(C)CC2)n1 [Compound C16, (3R,5R)-5-(2-methyl-6-(4-methylpiperazin-1-yl)pyrimidin-4-yl)-1-((S)-5,6,7,8-tetrahydroquinolin-8-yl)pyrrolidin-3-ol]
IC50 (CXCR4 [1]): 7.74 nM

CSc1nc(CN2CCCCC2c2ccccn2)cc(N2CCN(C)CC2)n1 (stereo not shown) [Compound C18]
IC50 (CXCR4 [1]): 429 nM

Cc1nc([C@H]2CC(F)(F)CN2[C@H]2CCCc3cccnc32)cc(N2CCN(C)CC2)n1 [Compound C19]
IC50 (CXCR4 [1]): 1710 nM

CO[C@@H]1C[C@H](c2cc(N3CCN(C)CC3)nc(C)n2)N([C@H]2CCCc3cccnc32)C1 [Compound C21]
IC50 (CXCR4 [1]): 82 nM

Cc1nc(CN2CCC[C@H]2c2ccccn2)cc(N2CCN(C)CC2)n1 [Compound C23]
IC50 (CXCR4 [1]): 144 nM

Cc1nc(CN2CCC[C@H]2c2ncccc2C)cc(N2CCN(C)CC2)n1 [Compound C25]
IC50 (CXCR4 [1]): 68 nM

Cc1ccnc([C@@H]2CCCN2Cc2cc(N3CCN(C)CC3)nc(C)n2)c1 [Compound C26]
IC50 (CXCR4 [1]): 206 nM

Cc1ccc([C@@H]2CCCN2Cc2cc(N3CCN(C)CC3)nc(C)n2)nc1 [Compound C27]
IC50 (CXCR4 [1]): 279 nM

Cc1cccc([C@@H]2CCCN2Cc2cc(N3CCN(C)CC3)nc(C)n2)n1 [Compound C28]
IC50 (CXCR4 [1]): 2280 nM

Cc1nc(CN2CCC(C)C2c2ccccn2)cc(N2CCN(C)CC2)n1 (stereo not shown) [Compound C29]
IC50 (CXCR4 [1]): 1200 nM

Cc1nc(CN2CCC[C@H]2c2ncccc2C)c(F)c(N2CCN(C)CC2)n1 [Compound C33]
IC50 (CXCR4 [2]): 1.1 nM

Cc1nc(CN2CCC[C@H]2c2ncccc2C)c(C#N)c(N2CCN(C)CC2)n1 [Compound C34]
IC50 (CXCR4 [2]): 1.8 nM

Cc1nc(CN2CCC[C@H]2c2ncccc2C)cc(NCCN2CCOCC2)n1 [Compound C35]
IC50 (CXCR4 [2]): 2.7 nM

Cc1nc(CN2CCC[C@H]2c2ncccc2C)cc(N2CCCN(C)CC2)n1 [Compound C36]
IC50 (CXCR4 [2]): 0.5 nM

Cc1nc(CN2CCC[C@H]2c2ncccc2C)cc(N2CCC(N(C)C)CC2)n1 [Compound C37]
IC50 (CXCR4 [2]): 12 nM
